One may read the IC50 as the midpoint of a concentration-inhibition curve. A low value points to greater potency.

The target in the experiment is T1, RORc (Homo sapiens, UniProt P51449).
T1 sequence (P51449 269-508 limits assumed): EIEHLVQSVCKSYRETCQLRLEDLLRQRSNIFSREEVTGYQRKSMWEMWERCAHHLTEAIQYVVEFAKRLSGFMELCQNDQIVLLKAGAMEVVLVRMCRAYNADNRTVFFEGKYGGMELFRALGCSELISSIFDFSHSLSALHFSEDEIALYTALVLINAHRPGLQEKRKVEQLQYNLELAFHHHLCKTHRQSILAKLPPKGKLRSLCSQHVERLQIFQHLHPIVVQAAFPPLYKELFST
Description: In vitro RORc ligand binding assay (25-[3H]hydroxycholesterol displacement). To be noted: IC50, IC50 values for RORc; unit inferred.
`C[C@H]1CC[C@H](c2ccccc2)S(=O)(=O)N1Cc1ccc(C2(NC(=O)C(O)CO)CCOCC2)cc1F` (stereo partly drawn) [Compound 111, N-[4-[3-fluoro-4-[[(3S,6R)-3-methyl-1,1-dioxo-6-phenyl-thiazinan-2-yl]methyl]phenyl]tetrahydropyran-4-yl]-2,3-dihydroxy-propanamide] showed a half-maximal inhibitory concentration (IC50) of 138 nM.

On to `C[C@H]1CC[C@H](c2ccccc2)S(=O)(=O)N1Cc1cc(F)c(C2(C(=O)NCC#N)CCOCC2)cc1F` [Compound 100, N-(cyanomethyl)-4[2,5-difluoro-4-[[(3S,6R)-3-methyl-1,1-dioxo-6-phenyl-thiazinan-2-yl]methyl]phenyl]tetrahydropyran-4-carboxamide], for which the IC50 was determined as 31 nM.

Take `C[C@H]1CC[C@H](c2ccccc2)S(=O)(=O)N1Cc1ccc([C@]2(CO)CC[C@@H](n3cnnc3)CC2)cc1F` [Compound 26, {1-[3-Fluoro-4-((3S,6R)-3-methyl-1,1-dioxo-6-phenyl-[1,2]thiazinan-2-ylmethyl)-phenyl]-4-[1,2,4]triazol-4-yl-cyclohexyl}-methanol]: the concentration for half-maximal inhibition (IC50) is 32 nM.

Regarding `C[C@H]1CC[C@H](c2ccccc2)S(=O)(=O)N1Cc1ccc([C@]2(C(N)=O)C[C@H](O)C2)cc1F` [Compound 182, 1-[3-fluoro-4-[[(3S,6R)-3-methyl-1,1-dioxo-6-phenyl-thiazinan-2-yl]methyl]phenyl]-3-hydroxy-cyclobutanecarboxamide], the 50% inhibitory concentration (IC50) is 37.3 nM.

As for `CCOC(=O)C[C@@H](O)C1(c2ccc(CN3[C@@H](C)CC[C@H](c4ccccc4)S3(=O)=O)c(F)c2)CCOCC1` [Compound 116, ethyl (3R)-3-[4-[3-fluoro-4-[[(3S,6R)-3-methyl-1,1-dioxo-6-phenyl-thiazinan-2-yl]methyl]phenyl]tetrahydropyran-4-yl]-3-hydroxy-propanoate], the concentration for half-maximal inhibition (IC50) came out at 12.2 nM.

Regarding `C[C@H]1CC[C@H](c2ccccc2)S(=O)(=O)N1Cc1ccc(C2(/C(N)=N\O)CCOCC2)cc1F` [Compound 93, 4-[3-fluoro-4-[[(3S,6R)-3-methyl-1,1-dioxo-6-phenyl-thiazinan-2-yl]methyl]phenyl]-N′-hydroxy-tetrahydropyran-4-carboxamidine], the half-maximal inhibitory concentration (IC50) came out at 37.8 nM.

The compound `C[C@H]1CC[C@H](c2ccccc2)S(=O)(=O)N1Cc1cc(F)c(C2(CO)CC2)cc1F` [Compound 126, [1-[2,5-difluoro-4-[[(3S,6R)-3-methyl-1,1-dioxo-6-phenyl-thiazinan-2-yl]methyl]phenyl]cyclopropyl]methanol] registered an IC50 of 49.9 nM.

Turning to `C[C@H]1CC[C@H](c2ccccc2)S(=O)(=O)N1Cc1cc(F)c(C2(CO)CCC(O)CC2)cc1F` (stereo partly drawn) [Compound 129, 4-[2,5-difluoro-4-[[(3S,6R)-3-methyl-1,1-dioxo-6-phenyl-thiazinan-2-yl]methyl]phenyl]-4-(hydroxymethyl)cyclohexanol], the IC50 is 8.1 nM.

Turning to `C[C@H]1CC[C@H](c2ccccc2)S(=O)(=O)N1Cc1ccc(C2(OCC(=O)O)CCOCC2)cc1F` [Compound 110, 2-[4-[3-fluoro-4-[[(3S,6R)-3-methyl-1,1-dioxo-6-phenyl-thiazinan-2-yl]methyl]phenyl]tetrahydropyran-4-yl]oxyacetic acid], the IC50 was determined as 62.9 nM.

Regarding `C[C@H]1CC[C@H](c2ccccc2)S(=O)(=O)N1Cc1ccc(C2(NCCO)CCOCC2)cc1F` [Compound 106, 2-[[4-[3-fluoro-4-[[(3S,6R)-3-methyl-1,1-dioxo-6-phenyl-thiazinan-2-yl]methyl]phenyl]tetrahydropyran-4-yl]amino]ethanol], the IC50 was determined as 137 nM.

Compound `CNC(=O)[C@]1(c2ccc(CN3[C@@H](C)CC[C@H](c4ccccc4)S3(=O)=O)c(F)c2)CC[C@H](n2cnnc2)CC1` [Compound 43, 1-[3-Fluoro-4-((3S,6R)-3-methyl-1,1-dioxo-6-phenyl[1,2]thiazinan-2-ylmethyl)-phenyl]-4-[1,2,4]triazol-4-yl-cyclohexanecarboxylic acid methylamide] had a concentration for half-maximal inhibition (IC50) of 96 nM.

Regarding `CCOC(=O)C[C@H](O)C1(c2ccc(CN3[C@@H](C)CC[C@H](c4ccccc4)S3(=O)=O)c(F)c2)CCOCC1` [Compound 115, ethyl (3S)-3-[4-[3-fluoro-4-[[(3S,6R)-3-methyl-1,1-dioxo-6-phenyl-thiazinan-2-yl]methyl]phenyl]tetrahydropyran-4-yl]-3-hydroxy-propanoate], the IC50 turned out to be 39.5 nM.

As for `C[C@H]1CC[C@H](c2ccccc2)S(=O)(=O)N1Cc1cc(F)c([C@]2(O)CC[C@@H](n3cnnc3)CC2)cc1F` [Compound 37, 1-[2,5-Difluoro-4-((3S,6R)-3-methyl-1,1-dioxo-6-phenyl-[1,2]thiazinan-2-ylmethyl)-phenyl]-4-[1,2,4]triazol-4-yl-cyclohexanol], the IC50 was 20 nM.

Turning to `C[C@H]1CC[C@H](c2ccccc2)S(=O)(=O)N1Cc1ccc(C2(O)CCS(=O)(=O)CC2)cc1F` [Compound 42, (3S,6R)-2-(2-fluoro-4-(4-hydroxy-1,1-dioxidotetrahydro-2H-thiopyran-4-yl)benzyl)-3-methyl-6-phenyl-1,2-thiazinane 1,1-dioxide], the concentration for half-maximal inhibition (IC50) was found to be 190 nM.

Compound `C[C@H]1CC[C@H](c2ccccc2)S(=O)(=O)N1Cc1ccc(C2(CNS(C)(=O)=O)CCOCC2)cc1F` [Compound 71, N-[[4-[3-fluoro-4-[[(3S,6R)-3-methyl-1,1-dioxo-6-phenyl-thiazinan-2-yl]methyl]phenyl]tetrahydropyran-4-yl]methyl]methanesulfonamide] registered an IC50 of 76.7 nM.

`COC1(OC)CC(C#N)(c2ccc(CN3[C@@H](C)CC[C@H](c4ccccc4)S3(=O)=O)c(F)c2)C1` [Compound 160, 1-[3-fluoro-4-[[(3S,6R)-3-methyl-1,1-dioxo-6-phenyl-thiazinan-2-yl]methyl]phenyl]-3,3-dimethoxy-cyclobutanecarbonitrile] displayed a half-maximal inhibitory concentration (IC50) of 14.5 nM.

Compound `C[C@H]1CC[C@@H](c2ccccc2)S(=O)(=O)N1Cc1ccc(C2(C(=O)O)CCOCC2)cc1F` [Compound 45, 4-[3-Fluoro-4-((3S,6S)-3-methyl-1,1-dioxo-6-phenyl-[1,2]thiazinan-2-ylmethyl)-phenyl]-tetrahydro-pyran-4-carboxylic acid] showed an IC50 of 6100 nM.

`C[C@H]1CC[C@H](c2ccccc2)S(=O)(=O)N1Cc1ccc(C2(CC#N)COC2)cc1F` [Compound 105, 2-[3-[3-fluoro-4-[[(3S,6R)-3-methyl-1,1-dioxo-6-phenyl-thiazinan-2-yl]methyl]phenyl]oxetan-3-yl]acetonitrile]: the half-maximal inhibitory concentration (IC50) worked out at 74.9 nM.

In the case of `C[C@H]1CC[C@H](c2ccccc2)S(=O)(=O)N1Cc1ccc(C2(C(=O)NCCCO)CCOCC2)cc1F` [Compound 54, 4-[3-fluoro-4-[[(3S,6R)-3-methyl-1,1-dioxo-6-phenyl-thiazinan-2-yl]methyl]phenyl]-N-(3-hydroxypropyl)tetrahydropyran-4-carboxamide], the IC50 stood at 79.8 nM.

Take `C[C@H]1CC[C@H](c2ccccc2)S(=O)(=O)N1Cc1ccc(C2(NC(=O)CO)CCOCC2)cc1F` [Compound 95, N-[4-[3-fluoro-4-[[(3S,6R)-3-methyl-1,1-dioxo-6-phenyl-thiazinan-2-yl]methyl]phenyl]tetrahydropyran-4-yl]-2-hydroxy-acetamide]: the half-maximal inhibitory concentration (IC50) came to 122 nM.

`C[C@H]1CC[C@H](c2ccccc2)S(=O)(=O)N1Cc1cc(F)c(C2(O)COC2)cc1F` [Compound 192, 3-[2,5-difluoro-4-[[(3S,6R)-3-methyl-1,1-dioxo-6-phenyl-thiazinan-2-yl]methyl]phenyl]oxetan-3-ol]: the IC50 worked out at 2.65 nM.

`C[C@H]1CC[C@H](c2ccccc2)S(=O)(=O)N1Cc1ccc(C2(CNC(=O)OC(C)(C)C)CCOCC2)cc1F` [Compound 74, tert-butyl N-[[4-[3-fluoro-4-[[(3S,6R)-3-methyl-1,1-dioxo-6-phenyl-thiazinan-2-yl]methyl]phenyl]tetrahydropyran-4-yl]methyl]carbamate] yielded an IC50 of 141 nM.

Regarding `C[C@H]1CC[C@H](c2ccccc2)S(=O)(=O)N1Cc1ccc([C@]2(C#N)C[C@@H](O)C2)cc1F` [Compound 179, 1-[3-fluoro-4-[[(3S,6R)-3-methyl-1,1 dioxo-6-phenyl-thiazinan-2-yl]methyl]phenyl]-3-hydroxy-cyclobutanecarbonitrile], the IC50 was found to be 159 nM.

The compound `C[C@H]1CC[C@H](c2ccccc2)S(=O)(=O)N1Cc1cc(F)c(C2(C(N)=O)CC(F)(F)C2)cc1F` [Compound 194, 1-[2,5-difluoro-4-[[(3S,6R)-3-methyl-1,1-dioxo-6-phenyl-thiazinan-2-yl]methyl]phenyl]-3,3-difluoro-cyclobutanecarboxamide] returned an IC50 of 3.05 nM.

As to `C[C@H]1CC[C@@H](c2ccccc2)S(=O)(=O)N1Cc1cc(F)c([C@]2(O)CC[C@@H](n3cnnc3)CC2)cc1F` [Compound 36, 1-[2,5-Difluoro-4-((3S,6S)-3-methyl-1,1-dioxo-6-phenyl-[1,2]thiazinan-2-ylmethyl)-phenyl]-4-[1,2,4]triazol-4-yl-cyclohexanol], the half-maximal inhibitory concentration (IC50) amounted to 13 nM.

The compound `C[C@H]1CC[C@H](c2ccccc2)S(=O)(=O)N1Cc1ccc(C2(C(=O)O)CCOCC2)cc1F` [Compound 44, 4-[3-Fluoro-4-((3S,6R)-3-methyl-1,1-dioxo-6-phenyl-[1,2]thiazinan-2-ylmethyl)-phenyl]-tetrahydro-pyran-4-carboxylic acid] yielded an IC50 of 1100 nM.

Compound `C[C@H]1CC[C@H](c2ccccc2)S(=O)(=O)N1Cc1ccc(OCC2(CO)CCOCC2)cc1F` [Example 3, {4-{3-Fluoro-4-((3S,6R)-3-methyl-1,1-dioxo-6-phenyl-[1,2]thiazinan-2-ylmethyl)-phenoxymethyl]-tetrahydro-pyran-4-yl}-methanol] registered an IC50 of 82 nM.

With `C[C@H]1CC[C@H](c2ccccc2)S(=O)(=O)N1Cc1ccc(C2(C(=O)NCC(=O)O)CCOCC2)cc1F` [Compound 58, 2-[[4-[3-fluoro-4-[[(3S,6R)-3-methyl-1,1-dioxo-6-phenyl-thiazinan-2-yl]methyl]phenyl]tetrahydropyran-4-carbonyl]amino]acetic acid], the 50% inhibitory concentration (IC50) was found to be 228 nM.

These data come from patent US10131644B2, “Aryl sultam derivatives as RORc modulators” (Genentech, Inc., priority 2014, dated 2018).
